Experimental data: article PMC4184574, “Enantioselectivity in the cytochrome P450-dependent conversion of tegafur to 5-fluorouracil in human liver microsomes” (Pharmacology Research & Perspectives, 2013)
Entries after “also recorded” stand apart in the source; their conditions may differ. Counter-ions that a name gives are not always drawn.

Columns and labels:
[1] = tested on: CYP2A6 (tranylcypromine), CYP2E1 (diethyldithiocarbamate); CYP-mediated 5-FU formation from R-FT; experiment: Effects of CYP-selective inhibitors on 5-FU formation from FT enantiomers in pooled human hepatic microsomes; type: in vitro ADME; conditions: human, pooled human liver microsomes, pH 7.4, probe R-FT (R-tegafur) 30 μmol/L, 5-FU formation
Description: (§1) Metabolic reaction by S9 and cytosol (each 2 mg protein/mL) was carried out in 100 mmol/L phosphate (pH 7.4) because TPase requires phosphate ions for catalyzing the reaction. In some cases, insect microsomes expressing recombinant CYP isoforms (20 pmol/mL) were added to the incubation mixtures in either 50, 100 mmol/L phosphate (pH 7.4) or 100 mmol/L Tris (pH 7.4), depending on supplier's recommendation. Microsomal protein concentrations of all cDNA-expressed CYPs were adjusted to 0.5 mg protein/mL by adding control microsomes expressing NADPH-P450 oxidoreductase and cytochrome b5. The reaction for the assay of FT metabolism was initiated by adding the substrate, following preincubation for 5 min at 37°C. After incubation at 37°C, the reaction was stopped by adding three volumes of ice-cold acetonitrile. The incubation times of microsomes, cytosol, and S9 were 15, 15, and 30 min, respectively. After centrifugation, the supernatant was collected and stored at −80°C until the determination of 5-FU. Because a small portion of FT is nonenzymatically converted to 5-FU, the content of 5-FU spontaneously formed was subtracted from total yield obtained after incubation to correct the activity. The spontaneous degradation of FT to 5-FU was evaluated using enzymes inactivated by heating them at 100°C for 5 min.
(§2) The effects of inhibitors of CYP isoforms and TPase, and anti-CYP antibodies on 5-FU formation from FT enantiomers catalyzed by human hepatic preparations were evaluated. In inhibition assays, FT enantiomers were used at the concentrations of 30 μmol/L. 1-Aminobenzotriazole (1 mmol/L) and TPI (10 μmol/L) were used as nonselective inhibitors of CYP isoforms and TPase, respectively. […] Inhibitors were dissolved in methanol and diluted with 100 mmol/L phosphate (pH 7.4) or 100 mmol/L Tris (pH 7.4) so that the final concentration of solvent in the incubation mixture was 0.5%. Methanol was also added to the control at the same concentration as the conditions with inhibitors. Inhibitory effects of anti-CYP antibodies were examined by preincubating microsomes with the antibodies for 10 min on ice. Each polyclonal anti-CYP antibody was used at a concentration ranging 10–40 μL/mg microsomal protein according to the procedure recommended by the supplier. The reaction was performed similarly as described above, except for evaluating the inhibitory effect of furafylline.
(§3) Concentration of 5-FU was determined using a LC/MS/MS system. The analytical system consisted of a HP1100 liquid chromatograph (Agilent Technologies, CA) coupled with an API4000 triple-quadrupole mass spectrometer (Applied Biosystems, CA) equipped with Turbo V source and ESI interface. Sample separation was performed using an Unison UK-Amino column (2.0 mm i.d. × 100 mm, 3 μm; Imtakt, Kyoto, Japan) at a flow rate of 0.2 mL/min at 40°C. The mobile phase consisted of 10 mmol/L ammonium acetate/acetonitrile 10:90 (v/v). […] For quantification of 5-FU, the calibration curves were linear over the range 2–1000 ng/mL.
(§4) For evaluating the effect of furafylline, the preincubation of microsomes with an inhibitor and an NADPH-generating system for 20 min was performed, followed by the enantioselective metabolic reaction. Opened and closed bars represent 5-FU formation rate from R- and S-FT, respectively.

[2] = tested on: CYP2A6 (tranylcypromine), CYP2E1 (diethyldithiocarbamate); CYP-mediated 5-FU formation from S-FT; experiment: as above; type: in vitro ADME; conditions: human, pooled human liver microsomes, pH 7.4, probe S-FT (S-tegafur) 30 μmol/L, 5-FU formation
Description: as §1, §2, §3, §4

[3] = Enantioselective conversion of FT to 5-FU in human hepatic S9 with CYP and TPase inhibitors; type: in vitro ADME; conditions: FT enantiomer 0.1 mmol/L, 1-aminobenzotriazole 1 mmol/L, TPI 10 μmol/L
Description: Insect microsomes expressing only NADPH-P450 oxidoreductase and cytochrome b5 were also used as control. These enzymes were stored at −80°C until use.
as §1
as §2, with “In inhibition assays, FT enantiomers were used at the concentrations of 30 μmol/L.” left out
(§5) Concentration of 5-FU was determined using a LC/MS/MS system. […] For quantification of 5-FU, the calibration curves were linear over the range 2–1000 ng/mL. […]

[4] = tested on: recombinant human CYP2B6, 2C8, 2C9, 2D6, and 3A4; experiment: 5-FU formation from FT enantiomers by other cDNA-expressed CYP isoforms; type: in vitro ADME; conditions: other isoforms than CYP1A2, 2A6, 2C19, 2E1; FT enantiomers 0.03 mmol/L; 20 pmol CYP/mL
Description: (pooled preparations from 20 donors; Kansas City, KS). […] Insect microsomes expressing only NADPH-P450 oxidoreductase and cytochrome b5 were also used as control. These enzymes were stored at −80°C until use.
5-FU formed from FT was subjected to extensive metabolism by dihydropyrimidine dehydrogenase (DPD) contaminating human hepatic preparations. Therefore, a potent DPD inhibitor, CDHP, was always added to avoid the unexpected loss of 5-FU (Ikeda et al. [2000]; Yamamiya et al. [2010]). Incubation mixture for hepatic microsomal metabolism contained FT, microsomes (1 mg protein/mL), 0.1 mmol/L CDHP, and an NADPH-generating system consisting of 1.3 mmol/L β-NADP^+, 3.3 mmol/L glucose-6-phosphate, 3.3 mmol/L magnesium chloride, and 0.4 units glucose-6-phosphate dehydrogenase in 100 mmol/L Tris (pH 7.4). Metabolic reaction by S9 and cytosol (each 2 mg protein/mL) was carried out in 100 mmol/L phosphate (pH 7.4) because TPase requires phosphate ions for catalyzing the reaction. […] The spontaneous degradation of FT to 5-FU was evaluated using enzymes inactivated by heating them at 100°C for 5 min.
as §5

[5] = molecular target: T1, CYP2A6 (Homo sapiens, UniProt P11509); experiment: 5-FU formation from FT enantiomers by cDNA-expressed CYP2A6 (kinetics, velocity, RAF contribution); conditions: CYP2A6; RAF method; 30 μmol/L
T1 sequence (P11509 1-494): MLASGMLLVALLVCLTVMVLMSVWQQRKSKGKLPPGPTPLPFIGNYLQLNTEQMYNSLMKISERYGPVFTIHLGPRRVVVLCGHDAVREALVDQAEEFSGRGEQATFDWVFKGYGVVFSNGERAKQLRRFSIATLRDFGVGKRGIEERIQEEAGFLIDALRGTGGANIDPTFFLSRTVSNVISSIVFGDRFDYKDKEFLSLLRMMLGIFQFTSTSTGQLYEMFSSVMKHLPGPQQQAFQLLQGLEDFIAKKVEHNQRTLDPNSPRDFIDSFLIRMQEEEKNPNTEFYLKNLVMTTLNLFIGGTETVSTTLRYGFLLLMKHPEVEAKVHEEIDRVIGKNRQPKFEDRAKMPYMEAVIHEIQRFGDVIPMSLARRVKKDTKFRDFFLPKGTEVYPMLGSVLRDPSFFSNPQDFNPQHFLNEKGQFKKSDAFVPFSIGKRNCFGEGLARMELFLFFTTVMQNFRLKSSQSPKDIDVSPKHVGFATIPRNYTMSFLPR
Text: Human hepatic 9000g supernatant (S9) and cytosolic fraction were purchased from XenoTech, LLC. (pooled preparations from 20 donors; Kansas City, KS). Human hepatic microsomes from five individuals (HG32, HH94, HH81, HH74, and HH31), a pooled preparation from 150 donors, and microsomes prepared from insect cell lines expressing CYP1A2, 2A6, 2B6, 2C8, 2C9, 2C19, 2D6, 2E1, and 3A4 were purchased from BD Gentest. Insect microsomes expressing only NADPH-P450 oxidoreductase and cytochrome b5 were also used as control. These enzymes were stored at −80°C until use.
as §1, §3
Kinetic studies were performed using microsomes from five human livers (HG32, HH94, HH81, HH74, and HH31), cDNA-expressed CYP isoforms, or pooled human hepatic cytosol. In determining kinetic parameters, FT concentration ranged from 0.03 to 10 mmol/L. All reactions were performed in a linear range of 5-FU formation with respect to protein or CYP concentrations and incubation time.
Intrinsic clearance (CLint) was calculated as a ratio of V/S where V and S were the metabolite formation rate and the concentration of a probe substrate for CYP isoform, respectively, when the substrate concentration was well below the Km value. The RAF for each CYP isoform was calculated according to equation (3) (Venkatakrishnan et al. [2000]). [drawing 3] (3) n = 1A2, 2A6, 2C19, or 2E1.
The contribution of CYPn to the metabolism of R- and S-FT at their concentration of 30 μmol/L was subsequently calculated using equation (4). [drawing 4] (4) VCYPn = 5-FU formation rate in cDNA-expressed CYPn.

[6] = design: method as in Damle et al. [2001]; conditions: after oral administration; ref Damle et al. [2001]; cited from earlier work
[7] = Effects of CYP-selective inhibitors on 5-FU formation from FT enantiomers in pooled human hepatic microsomes; type: in vitro ADME; conditions: pooled human hepatic microsomes; for effect on 5-FU formation from R-FT (in words): furafylline 25, quinidine 1, ketoconazole 1 μmol/L; for effect on 5-FU formation from S-FT (in words): furafylline 25, ticlopidine 20, quinidine 1, ketoconazole 1 μmol/L
Description: as §1, §2, §3, §4

N[C@@H]1C[C@H]1c1ccccc1 (racemic) [tranylcypromine, tranylcypromine hydrochloride]
inhibition at 15 min ([1]; pooled human hepatic microsomes, R-FT 30 μmol/L, tranylcypromine 5 μmol/L, diethyldithiocarbamate 100 μmol/L): ~90%
inhibition at 15 min ([2]; pooled human hepatic microsomes, S-FT 30 μmol/L, tranylcypromine 5 μmol/L, diethyldithiocarbamate 100 μmol/L): ~90%

Nn1nnc2ccccc21 [1-aminobenzotriazole, 1-Aminobenzotriazole]
effect on 5-FU formation from R-FT (in words) [3]: markedly reduced; also recorded: strong inhibitory effect
effect on 5-FU formation from S-FT (in words) [3]: markedly reduced; also recorded: strong inhibitory effect

O=c1[nH]c(=O)n(C2CCCO2)cc1F (centres unmarked) [FT, 5-fluoro-1-(2-tetrahydrofuryl)-2, 4 (1H, 3H)-pyrimidinedione, reference compound]
activity for the enantioselective metabolism of FT (in words) [4]: negligible activity
CYP contribution [5]: over 85%
oral bioavailability [6]: approximately 100%

Cl.N=C1CCCN1Cc1[nH]c(=O)[nH]c(=O)c1Cl [TPI, 5-chloro-6-(2-iminopyrrolidin-1-yl) methyl-2, 4 (1H,3H)-pyrimidinedione hydrochloride]
effect on 5-FU formation from R-FT (in words) [3]: only a minor effect; also recorded: only a slight effect
effect on 5-FU formation from S-FT (in words) [3]: only a minor effect; also recorded: not observed

CCN(CC)C(=S)S [diethyldithiocarbamate, sodium diethyldithiocarbamate]
inhibition at 15 min [1]: 27%
inhibition at 15 min [2]: 34%
amount of 5-FU formed from R-FT, % of the control value ([7]; R-FT 30 μmol/L, diethyldithiocarbamate 100 μmol/L): 73 % of the control value
amount of 5-FU formed from S-FT, % of the control value ([7]; S-FT 30 μmol/L, diethyldithiocarbamate 100 μmol/L): 64 % of the control value

Cc1nc2c([nH]1)c(=O)n(C)c(=O)n2Cc1ccco1 [furafylline]
effect on 5-FU formation from R-FT (in words) ([7]; R-FT 30 μmol/L): no effect
effect on 5-FU formation from S-FT (in words) ([7]; S-FT 30 μmol/L): no effect

CC(=O)N1CCN(c2ccc(OCC3COC(Cn4ccnc4)(c4ccc(Cl)cc4Cl)O3)cc2)CC1 (centres unmarked) [ketoconazole]
effect on 5-FU formation from R-FT (in words) ([7]; R-FT 30 μmol/L): no effect
effect on 5-FU formation from S-FT (in words) ([7]; S-FT 30 μmol/L): no effect
